System: HVA calcium channel
Type: cell-based, rat

SMILES: COC(=O)C1=C(C)NC(C)=C(C(=O)OC)C1c1ccccc1[N+](=O)[O-] [Nifedipine]
- current after loading: −734.31 pA
- current before loading: −1471.35 pA
- inhibition rate (10 µM): 50.09%

Source: US10179802B2 (priority 2014, dated 2019)
